Like-named read-outs stand apart in the source and are kept apart here. Where only a bound is given, the exact number is not on record here.

In one experiment the test system is H4-III-E cells. The experiment in a line: TAT (tyrosine aminotransferase) assay. Type of experiment: cell-based. The conditions noted are these: for activation at 10 µM / Agonistic activity of 10 μM test compound: 10 μM test compound alone, relative to maximum Dex-induced TAT activity (100%); for activation at 10 µM: read-out: Agonistic activity of 10 μM test compound; for Antagonistic activity of 10 μM test compound: 10 μM test compound together with 0.005 μM dexamethasone, inhibitory ratio against TAT activity increase by Dex. As for the experimental part:
H4-III-E cells, which had been continuously cultured in α-MEM medium A (supplemented with 10% inactivated FBS, 50 μM 2-mercapto-ethanol), were suspended in α-MEM medium A or α-MEM medium B (supplemented with 10% inactivated FBS, 50 μM 2-mercapto-ethanol, but without phenol red), and the cell suspension was seeded to a 96-well plate in an amount of 2×10^4 cells/100 μl/well, and the cells were cultured overnight. The supernatant in the medium was removed, and a test compound (100 μl, diluted with α-MEM medium A or α-MEM medium B) was added, and the cells were further cultured overnight. In order to measure the agonistic activity, a test compound was added alone, while in order to measure the antagonistic activity, a test compound was added simultaneously together with 0.005 μM dexamethasone and evaluated the extent of the inhibitory effect of said test compound against the TAT activity-inducing activity by dexamethasone.
The culture supernatant in the plate was removed by suction, and a cell lysate (20 μL; 1% NP-40, 0.2% Triton X-100, 0.25% DOC, 0.1% SDS, 1 mM EGTA, 150 mM NaCl, Tris (pH7.4), Protease inhibitor cocktail [2.5 mg/ml aprotinin, 2.5 mg/ml leupeptin, 2.5 mg/ml soybean trypsin inhibitor]) was added, and further thereto was added a TAT reaction reagent (150 μL; 10 N KOH, 0.125 M KH2PO4, 0.5 M α-ketoglutarate, 5 mM Pyridoxal-5′ phosphate, L-tyrosine), and the mixture was reacted at 37° C. for 15 minutes. Further, a 10N KOH (20 μL) was added thereto, and the mixture was reacted at 37° C. for 30 minutes, and the absorbance at 331 nm was measured by a microplate reader (SPECTRA MAX 250).
From the mean absorbance in the wells to which a test compound was added, the mean absorbance in the wells to which a compound and a TAT reaction solution were not added was subtracted.
Agonistic activity (%)=100×[(absorbance of the drug-treated group)−(absorbance of the group without TAT reaction reagent)]/[(absorbance of Dex-treated group)−(absorbance of the group without TAT reaction reagent)]
On the other hand, the antagonistic activity was calculated as follows.
Antagonistic activity (%)=Inhibitory ratio (%) against TAT activity increase by Dex=100−100×[(absorbance of the drug-treated group)−(absorbance of the group without a drug)]/[(absorbance of Dex-treated group)−(absorbance of the group without a drug)]
With regard to the agonistic activity and the antagonistic activity, the results of 10% or more were expressed as O, while the results of less than 10% were expressed as X.

The target in the next experiment is T1, human GRα protein (Homo sapiens, UniProt P04150).
T1 construct: made in house; host or cells: insect cells infected with baculovirus; cytoplasm fraction used
T1 sequence (P04150 1-777): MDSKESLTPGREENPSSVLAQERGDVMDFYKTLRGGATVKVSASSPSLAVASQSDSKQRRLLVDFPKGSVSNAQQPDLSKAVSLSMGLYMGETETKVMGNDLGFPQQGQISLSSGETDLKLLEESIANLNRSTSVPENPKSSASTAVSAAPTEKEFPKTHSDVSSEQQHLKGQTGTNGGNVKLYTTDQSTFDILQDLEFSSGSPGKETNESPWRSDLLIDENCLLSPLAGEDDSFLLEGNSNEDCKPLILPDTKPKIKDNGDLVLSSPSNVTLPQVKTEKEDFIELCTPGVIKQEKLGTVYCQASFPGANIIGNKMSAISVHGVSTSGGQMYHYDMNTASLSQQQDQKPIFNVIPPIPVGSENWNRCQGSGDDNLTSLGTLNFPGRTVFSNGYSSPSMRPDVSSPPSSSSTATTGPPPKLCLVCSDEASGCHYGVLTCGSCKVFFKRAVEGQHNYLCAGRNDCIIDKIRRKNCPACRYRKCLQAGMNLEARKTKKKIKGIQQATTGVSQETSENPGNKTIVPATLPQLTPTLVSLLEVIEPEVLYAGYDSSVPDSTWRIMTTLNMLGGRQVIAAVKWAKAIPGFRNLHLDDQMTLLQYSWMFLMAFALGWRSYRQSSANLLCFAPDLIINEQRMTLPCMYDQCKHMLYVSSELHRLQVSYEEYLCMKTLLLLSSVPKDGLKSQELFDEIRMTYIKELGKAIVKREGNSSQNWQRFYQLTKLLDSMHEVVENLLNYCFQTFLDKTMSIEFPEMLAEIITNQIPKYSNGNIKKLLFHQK
Description: Binding inhibitory assay (displacement of 3H-dexamethasone from the cytoplasm fraction of baculovirus-infected insect cells). The conditions noted are these: read-out: Binding Inhibitory ratio (%) of 100 nM of test compound. As for the experimental part:
Insect cells, which had been infected with baculovirus for expressing human GRα protein, were suspended in an approximately equal volume of a binding buffer (10 mM Tris-Cl, 1.5 mM EDTA, 10% glycerol, 5 mM DTT, 20 mM sodium molybdate, pH 7.6). The mixture was rapidly frozen with liquid nitrogen, and then melted at room temperature. This cycle was repeated totally twice in order to break the cell membrane. The mixture was ultracentrifuged under 100,000 g at 4° C. for one hour to give the supernatant, which was the cytoplasm fraction containing human GRα protein.
A polypropylene 96-well plate (manufactured by Costar Corporation, etc.) was placed on ice, and DMSO or a test compound (each 1 μl) was put into each well. A 10 nM ^3H-Dex solution (50 μl; tritiated dexamethasone; manufactured by Amersham) in the binding buffer, and a GR protein solution, i.e., a solution by diluting the above cytoplasm fraction with the binding buffer (50 μl) were added to each well, and the plate was lightly shaken with a plate mixer, and then left to stand at 4° C. for 16 to 20 hours (the final concentration of DMSO: 1%).
A 5% solution of dextran-coated active carbon (manufactured by Sigma) suspended in the binding buffer (50 μl) was put into each well, and the plate was lightly shaken with a plate mixer for 30 seconds. Then, the plate was centrifuged at 2500 rpm at 4° C. for 5 minutes, and the ^3H count in the supernatant (50 μl) was measured by a TopCount (manufactured by Perkin-Elmer Corporation). Each test compound was tested twice.
The binding activity was calculated as follows. The mean ^3H count in the presence of dexamethason (Dex) 10 μM was considered as NSB (non-specific binding), and the binding inhibitory ratio in each well was calculated by the following equation.
Binding Inhibitory Ratio (%)=100×{1−(cpm value of each well−NSB)/(mean cpm value of DMSO-well−NSB)}
(cpm means count per minute)
The mean binding inhibitory ratio of each well was calculated by the above equation to give a binding inhibitory ratio of each test compound.
(In general: Loss of bound radioactivity is the signal in a displacement assay; it reports binding, not function.)

[1] abbreviates: 100 nM test compound, 3H-Dex, NSB with 10 μM dexamethasone.

As for `O=[N+]([O-])c1ccc2c(C(O)(Cn3ccnc3)C(F)(F)F)cn(Cc3ccccc3)c2c1` (stereo not shown) [Example 158, 2-(1-Benzyl-6-nitro-1H-indol-3-yl)-1,1,1-trifluoro-3-(1H-imidazol-1-yl)propan-2-ol], in the experiment with H4-III-E cells, the activation at 10 µM was less than 10% and the “Antagonistic activity of 10 μM test compound” value (from here on “Antagonistic activity”) is “◯”. Moreover, the inhibition at 0.1 µM at human GRα protein (setting [1]) stood at 96%.

With `O=[N+]([O-])c1ccc2c(C(O)(CNCCOc3ccccc3)C(F)(F)F)cn(Cc3ccccc3)c2c1` (stereo not shown) [Example 133, 2-(1-Benzyl-6-nitro-1H-indol-3-yl)-1,1,1-trifluoro-3-[(2-phenoxyethyl)amino]-propan-2-ol], in the experiment with H4-III-E cells, the activation at 10 µM is less than 10% and the “Antagonistic activity” value was “◯”. Moreover, on human GRα protein (setting [1]), the inhibition at 0.1 µM is 51%.

In the case of `O=C(N1CCOCC1)C(O)(c1cn(Cc2ccccc2)c2ccccc12)C(F)(F)F` (stereo not shown) [Example 152, 2-(1-Benzyl-1H-indol-3-yl)-1,1,1-trifluoro-3-morpholin-4-yl-3-oxopropan-2-ol], the activation at 10 µM in the experiment with H4-III-E cells was less than 10%. Also, the inhibition at 0.1 µM at human GRα protein (setting [1]) came to 50%.

With `COc1ccc(Cn2cc(C(O)(CN3CCC(Oc4ccc(CC(=O)O)cc4OC)CC3)C(F)(F)F)c3ccc(C#N)cc32)cc1` (stereo not shown) [Example 226, {4-[(1-{2-[6-Cyano-1-(4-methoxybenzyl)-1H-indol-3-yl]-3,3,3-trifluoro-2-hydroxypropyl}piperidin-4-yl)oxy]-3-methoxyphenyl}acetic acid], in the experiment on H4-III-E cells, the “Agonistic activity of 10 μM test compound” value is “◯” and the “Antagonistic activity” value is “◯”. At human GRα protein (setting [1]), the inhibition at 0.1 µM was 96%.

On to `COc1cc(CC(=O)O)ccc1OC1CCN(CC(O)(c2cn(Cc3ccccc3)c3cc([N+](=O)[O-])ccc23)C(F)(F)F)CC1` (stereo not shown) [Example 201, [4-({1-[2-(1-Benzyl-6-nitro-1H-indol-3-yl)-3,3,3-trifluoro-2-hydroxypropyl]-piperidin-4-yl}oxy)-3-methoxyphenyl]acetic acid], for which, in the experiment with H4-III-E cells, the “Agonistic activity of 10 μM test compound” value is “◯” and the “Antagonistic activity” value is given as “◯”. Further, at human GRα protein (setting [1]), the inhibition at 0.1 µM was 99%.

As for `O=[N+]([O-])c1ccc2c(C(O)(CN3CCC4(CC3)CS(=O)(=O)c3ccccc3O4)C(F)(F)F)cn(Cc3ccccc3)c2c1` (stereo not shown) [Example 123, 2-(1-Benzyl-6-nitro-1H-indol-3-yl)-3-(4,4-dioxido-1′H-spiro[1,4-benzoxathiine-2,4′-piperidin]-1′-yl)-1,1,1-trifluoropropan-2-ol], in the experiment on H4-III-E cells, the activation at 10 µM was less than 10% and the “Antagonistic activity” value is reported as “◯”. For the same molecule, the inhibition at 0.1 µM at human GRα protein (setting [1]) amounted to 72%.

On to `CCOC(=O)C(O)(c1cn(Cc2ccccc2)c2cc([N+](=O)[O-])ccc12)C(F)(F)F` (stereo not shown) [Example 2, Ethyl 2-(1-benzyl-6-nitro-1H-indol-3-yl)-3,3,3-trifluoro-2-hydroxypropanoate], for which, in the experiment with H4-III-E cells, the activation at 10 µM was less than 10% and the “Antagonistic activity” value is reported as “◯”. In addition, at human GRα protein, the inhibition at 0.1 µM was determined as 87%.

With `COC(CN1CCC(C(=O)c2ccccc2)CC1)(c1cn(Cc2ccccc2)c2cc([N+](=O)[O-])ccc12)C(F)(F)F` (stereo not shown) [Example 153, {1-[2-(1-Benzyl-6-nitro-1H-indol-3-yl)-3,3,3-trifluoro-2-methoxypropyl]piperidin-4-yl}(phenyl)methanone], in the experiment on H4-III-E cells, the “Agonistic activity of 10 μM test compound” value is “◯” and the “Antagonistic activity” value is “◯”. Besides, the inhibition at 0.1 µM at human GRα protein (setting [1]) stood at 91%.

Turning to `O=[N+]([O-])c1ccc2c(C(O)(CN3CCC(Nc4ccccc4)CC3)C(F)(F)F)cn(Cc3ccccc3)c2c1` (stereo not shown) [Example 185, 3-(4-Anilinopiperidin-1-yl)-2-(1-benzyl-6-nitro-1H-indol-3-yl)-1,1,1-trifluoropropan-2-ol], in the experiment on H4-III-E cells, the activation at 10 µM was less than 10% and the “Antagonistic activity” value is listed as “◯”. For the same molecule, the inhibition at 0.1 µM at human GRα protein (setting [1]) was determined as 82%.

In the case of `O=[N+]([O-])c1ccc2c(C(O)(CNCC3CCCO3)C(F)(F)F)cn(Cc3ccccc3)c2c1` (stereo not shown) [Example 140, 2-(1-Benzyl-6-nitro-1H-indol-3-yl)-1,1,1-trifluoro-3-[(tetrahydrofuran-2-yl-methyl)amino]propan-2-ol], in the experiment with H4-III-E cells, the activation at 10 µM is less than 10% and the “Antagonistic activity” value is reported as “◯”. Besides, the inhibition at 0.1 µM on human GRα protein (setting [1]) came out at 80%.

For `CN(C(=O)C1CCN(CC(O)(c2cn(Cc3ccccc3)c3cc([N+](=O)[O-])ccc23)C(F)(F)F)CC1)c1ccccc1` (stereo not shown) [Example 95, 1-[2-(1-Benzyl-6-nitro-1H-indol-3-yl)-3,3,3-trifluoro-2-hydroxypropyl]-N-methyl-N-phenylpiperidine-4-carboxamide], in the experiment with H4-III-E cells, the activation at 10 µM is less than 10% and the “Antagonistic activity” value was “◯”. For the same molecule, the inhibition at 0.1 µM on human GRα protein (setting [1]) was 59%.

For the molecule `O=[N+]([O-])c1ccc2c(C(O)(CNCCc3ccccc3)C(F)(F)F)cn(Cc3ccccc3)c2c1` (stereo not shown) [Example 157, 2-(1-Benzyl-6-nitro-1H-indol-3-yl)-1,1,1-trifluoro-3-[(2-phenylethyl)amino]-propan-2-ol], the inhibition at 0.1 µM on human GRα protein (setting [1]) was 50%.

For `CCOC(=O)CCc1ccc(C(=O)C2CCN(CC(O)(c3cn(Cc4ccccc4)c4cc([N+](=O)[O-])ccc34)C(F)(F)F)CC2)cc1` (stereo not shown) [Example 229, Ethyl 3-[4-({1-[2-(1-benzyl-6-nitro-1H-indol-3-yl)-3,3,3-trifluoro-2-hydroxypropyl]piperidin-4-yl}carbonyl)phenyl]propanoate], at human GRα protein (setting [1]), the inhibition at 0.1 µM is 74%.

These data come from patent US20100190768A1, “NOVEL FUSED PYROLE DERIVATIVE” (Dainippon Sumitomo Pharma Co., Ltd., priority 2005, published 2010).
